Measurements from ChEMBL document CHEMBL1201862, “PubChem BioAssay data set” (2004).
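Values below derive from 48-hour exposures of cells grown in 96-well plates, with endpoints linearly interpolated between the two concentrations bracketing the appropriate inhibition level. The concentration for 50% growth inhibition is given as GI50.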 Activity calls are given as the source filed them. Rule as the data show it: active = GI50 up to about 1.1 µM and inactive = higher.

Columns and labels:
Test in all cases: NCI tumour cell line growth inhibition, 48 h
LOX IMVI = tested on: LOX IMVI
TK-10 = tested on: TK-10
NCI-H226 = tested on: NCI-H226
Malme-3M = tested on: Malme-3M
Hs-578T = tested on: Hs-578T
SK-MEL-2 = tested on: SK-MEL-2
SR = tested on: SR
HL-60 = tested on: HL-60
HOP-92 = tested on: HOP-92
EKVX = tested on: EKVX
HOP-62 = tested on: HOP-62
PC-3 = tested on: PC-3
HCC 2998 = tested on: HCC 2998
NCI-H23 = tested on: NCI-H23
786-0 = tested on: 786-0
UO-31 = tested on: UO-31
IGROV-1 = tested on: IGROV-1
OVCAR-3 = tested on: OVCAR-3
RXF 393 = tested on: RXF 393

Measured: GI50

COc1cc2c3cc1Oc1c(OC)c(OC)cc4c1C(Cc1ccc(O)c(c1)Oc1ccc(cc1)CC3N(C)CC2)N(C)CC4 (stereo not drawn)
inactive: LOX IMVI 58.7 µM | TK-10 42.8 µM | NCI-H226 49.9 µM | Malme-3M 59.2 µM | Hs-578T 24.2 µM | SK-MEL-2 28.8 µM | SR 2.09 µM | HL-60 28.3 µM | HOP-92 26.2 µM | EKVX 27.9 µM | HOP-62 64.6 µM | PC-3 31.3 µM | HCC 2998 15.8 µM | NCI-H23 14.8 µM | 786-0 > 100 µM | UO-31 16.7 µM | IGROV-1 39.8 µM

O=[As](O)(O)c1ccc(NCc2ccccc2)cc1
inactive: LOX IMVI > 100 µM | TK-10 > 100 µM | NCI-H226 > 100 µM | Malme-3M > 100 µM | Hs-578T 58.9 µM | SK-MEL-2 > 100 µM | SR > 100 µM | HOP-92 > 100 µM | EKVX > 100 µM | HOP-62 > 100 µM | PC-3 > 100 µM | NCI-H23 92.9 µM | OVCAR-3 > 100 µM | 786-0 > 100 µM | UO-31 > 100 µM | IGROV-1 > 100 µM | RXF 393 > 100 µM

CCCCC/C=C1\CC(CO)(COC(=O)CC(C(C)C)C(C)C)OC1=O (stereo not drawn)
inactive: TK-10 14.2 µM | NCI-H226 13.7 µM | Malme-3M 15.3 µM | Hs-578T 4.62 µM | SK-MEL-2 20.3 µM | SR 28.6 µM | HOP-92 3.66 µM | EKVX 13.7 µM | HOP-62 6 µM | PC-3 10.5 µM | HCC 2998 15.4 µM | NCI-H23 17.5 µM | OVCAR-3 17.5 µM | 786-0 12.1 µM | UO-31 13.7 µM | IGROV-1 17.4 µM | RXF 393 17.9 µM

COc1ccc(C2=NOC(N)(c3ccc(OC)cc3)C2)cc1 (stereo not drawn)
inactive: LOX IMVI > 100 µM | TK-10 > 100 µM | NCI-H226 > 100 µM | Malme-3M 66.5 µM | Hs-578T 81.1 µM | SK-MEL-2 > 100 µM | SR > 100 µM | HL-60 38.2 µM | HOP-92 > 100 µM | EKVX > 100 µM | HOP-62 64.7 µM | PC-3 > 100 µM | HCC 2998 > 100 µM | NCI-H23 > 100 µM | OVCAR-3 > 100 µM | 786-0 90.8 µM | UO-31 > 100 µM | IGROV-1 > 100 µM

N#CC(C#N)=C1c2ccccc2C(=NN)c2ccccc21
inactive: TK-10 > 100 µM | NCI-H226 > 100 µM | Malme-3M 92.9 µM | Hs-578T 9.57 µM | SK-MEL-2 > 100 µM | SR > 100 µM | HOP-92 > 100 µM | HOP-62 10.6 µM | PC-3 > 100 µM | HCC 2998 > 100 µM | OVCAR-3 > 100 µM | 786-0 > 54.8 µM | UO-31 > 100 µM | IGROV-1 > 100 µM | RXF 393 27.5 µM

O=C(Nc1ccccc1)c1cc(S(=O)(=O)Nc2n[nH]c(=O)[nH]2)c(SSc2cc(Cl)c(C(=O)Nc3ccccc3)cc2S(=O)(=O)Nc2n[nH]c(=O)[nH]2)cc1Cl
inactive: LOX IMVI > 100 µM | TK-10 > 100 µM | NCI-H226 > 100 µM | Malme-3M > 100 µM | Hs-578T > 100 µM | SK-MEL-2 > 100 µM | SR > 100 µM | HL-60 > 100 µM | HOP-92 > 100 µM | EKVX > 100 µM | HOP-62 > 100 µM | PC-3 > 100 µM | HCC 2998 > 100 µM | NCI-H23 > 100 µM | OVCAR-3 > 100 µM | 786-0 > 100 µM | UO-31 > 100 µM | IGROV-1 > 100 µM

Cc1ccc(/N=N/C(=NNC(=O)c2ccc(C)cc2)c2ccc(N(C)C)cc2)cc1
inactive: LOX IMVI 33.4 µM | TK-10 64.7 µM | NCI-H226 23.8 µM | Hs-578T 28.1 µM | SK-MEL-2 38.3 µM | SR 17.9 µM | HL-60 27.5 µM | HOP-92 28.6 µM | EKVX 30.1 µM | PC-3 42.6 µM | HCC 2998 27.4 µM | NCI-H23 24.3 µM | OVCAR-3 17.6 µM | 786-0 33.3 µM | UO-31 26.1 µM | IGROV-1 29.3 µM

CCN(CC)P(=O)(c1ccc2c(c1)OCCOCCOCCOCCO2)N(CC)CC
inactive: LOX IMVI > 100 µM | TK-10 > 100 µM | NCI-H226 > 100 µM | Malme-3M > 100 µM | Hs-578T > 100 µM | SR > 100 µM | HL-60 > 100 µM | EKVX > 100 µM | HOP-62 > 100 µM | PC-3 > 100 µM | HCC 2998 > 100 µM | NCI-H23 > 100 µM | 786-0 > 100 µM | UO-31 > 100 µM | IGROV-1 > 100 µM

CC(NC(=O)C(CC(=O)OCc1ccccc1)NC(=O)OCc1ccccc1)c1ccccc1 (stereo not drawn)
inactive: TK-10 > 100 µM | NCI-H226 43.5 µM | Malme-3M 73.3 µM | Hs-578T > 100 µM | SK-MEL-2 > 100 µM | SR > 100 µM | EKVX > 100 µM | HOP-62 49.2 µM | PC-3 35.3 µM | HCC 2998 > 100 µM | NCI-H23 > 100 µM | OVCAR-3 > 100 µM | 786-0 49.2 µM | UO-31 > 100 µM | IGROV-1 > 100 µM | RXF 393 19.2 µM

[N-]=[N+]=NC1=C(C(=O)c2ccccc2)C(=O)c2cccc3cccc1c23
inactive: TK-10 21.9 µM | NCI-H226 36.4 µM | Malme-3M 46.7 µM | Hs-578T 20.7 µM | SK-MEL-2 21.8 µM | SR 10.6 µM | HOP-92 28.4 µM | EKVX 19.1 µM | HOP-62 17.1 µM | PC-3 49.2 µM | NCI-H23 51.3 µM | OVCAR-3 30.5 µM | 786-0 25.3 µM | UO-31 26.2 µM | IGROV-1 10.1 µM | RXF 393 22.4 µM

CCOP(=O)(OCC)/C(C#N)=C/c1nccn1C
inactive: LOX IMVI > 100 µM | TK-10 > 100 µM | NCI-H226 > 100 µM | Hs-578T > 100 µM | SK-MEL-2 > 100 µM | SR > 100 µM | HL-60 > 100 µM | HOP-92 63 µM | EKVX > 100 µM | HOP-62 > 100 µM | PC-3 > 100 µM | HCC 2998 > 100 µM | NCI-H23 > 100 µM | OVCAR-3 > 100 µM | 786-0 > 100 µM | UO-31 > 100 µM

COc1cc(-c2oc3c(OC)c(O)c(OC)c(O)c3c(=O)c2OC)ccc1O
inactive: LOX IMVI 26.9 µM | TK-10 31.3 µM | NCI-H226 34.9 µM | Malme-3M 34.7 µM | Hs-578T 14.9 µM | SK-MEL-2 24.8 µM | SR 41.5 µM | HL-60 33.5 µM | EKVX 78.7 µM | HOP-62 23.1 µM | PC-3 48.9 µM | HCC 2998 45.3 µM | NCI-H23 52.4 µM | OVCAR-3 24.3 µM | 786-0 38.1 µM | UO-31 31.6 µM | IGROV-1 25.4 µM
